# Test results reported in publication PMC8910432 (International Journal of Molecular Sciences, 2022).
# Tests used:
# [1] = target: RBD (N501Y) spike protein and human ACE2 (Severe acute respiratory syndrome coronavirus 2, UniProt P0DTC2, N501Y); format: binding, SARS-CoV-2; human; conditions: for inhibitory effect on interaction between RBD (N501Y) spike protein and human ACE2: 10 µM
# [2] = target: RBD (N501Y) (Severe acute respiratory syndrome coronavirus 2, UniProt P0DTC2, N501Y); format: binding, SARS-CoV-2
Molecule,concentration from which inhibition is significant [1] [µM],reduction of the binding between RBD (N501Y) spike protein and ACE2 [1],inhibitory effect on interaction between RBD (N501Y) spike protein and human ACE2 [1],TA adsorption onto RBD (QCMD) [2]
"O=C(OC[C@H]1OC(OC(=O)c2cc(O)c(O)c(OC(=O)c3cc(O)c(O)c(O)c3)c2)[C@H](OC(=O)c2cc(O)c(O)c(OC(=O)c3cc(O)c(O)c(O)c3)c2)[C@@H](OC(=O)c2cc(O)c(O)c(OC(=O)c3cc(O)c(O)c(O)c3)c2)[C@@H]1OC(=O)c1cc(O)c(O)c(OC(=O)c2cc(O)c(O)c(O)c2)c1)c1cc(O)c(O)c(OC(=O)c2cc(O)c(O)c(O)c2)c1 (stereo partly drawn) [TA, 1,2,3,4,6-penta-O-{3,4-dihydroxy-5-((3,4,5-trihydroxybenzoyl)oxy)benzoyl}-D-glucopyranose]",≥ 0.1,up to 95%,up to 50%,amount of TA adsorbed increases with TA concentration
"O=C(OC[C@H]1O[C@@H](OC(=O)c2cc(O)c(O)c(O)c2)[C@H](O)[C@@H](OC(=O)c2cc(O)c(O)c(O)c2)[C@@H]1O)c1cc(O)c(O)c(O)c1 [TGG, 1,3,6-tri-O-galloyl-β-D-glucose]",≥ 0.1,,up to 50%,
"O=C(O[C@@H]1O[C@@H]2COC(=O)c3cc(O)c(O)c(O)c3-c3c(cc(O)c(O)c3O)C(=O)O[C@H]([C@H]1O)[C@@H]2O)c1cc(O)c(O)c(O)c1 [corilagin, β-1-O-galloyl-3,6-(R)-hexahydroxydiphenoyl-D-glucose]",≥ 0.1,,up to 50%,
COc1cc(-c2[o+]c3cc(O)cc(O)c3cc2O[C@@H]2O[C@H](CO)[C@@H](O)[C@H](O)[C@H]2O)cc(OC)c1O [malvidin-3-O-glucoside],,,"only TA, TGG, and corilagin show a significant inhibitory effect",
OC[C@H]1O[C@@H](Oc2cc3c(O)cc(O)cc3[o+]c2-c2ccc(O)cc2)[C@H](O)[C@@H](O)[C@@H]1O [pelargonidin-3-O-glucoside],,,"only TA, TGG, and corilagin show a significant inhibitory effect",
cyanidin-3-O-glucoside,,,"only TA, TGG, and corilagin show a significant inhibitory effect",
